Entries after “also recorded” stand apart in the source; their conditions may differ. Read-outs that look alike come from different tables or passages of the source.
Columns and labels:
[1] = Tissue distribution in C57BL/6 male mice; format: in vivo, C57BL/6 mice; conditions: oral 10 mg/kg; for PK parameters / concentration at 0.5 h / concentration at 2 h / concentration at 4 h / concentration at 8 h / Kp: mice; for concentration at 0.5 h / concentration at 2 h / concentration at 4 h / concentration at 8 h / Kp: male, C57BL/6, mouse; for Kp: read-out: Tissue/Plasma ratio (Kp)
[2] = Single dose IV and PO PK study in Han Wistar rats; format: in vivo
Protocol: C57BL/6 male mice or Han Wistar rats were used, n=3 for each administration route and compound. Single dose of each compound was administered orally (PO, 10 mg/Kg) or by intravenous administration (IV, 1 mg/Kg). Following intravenous and oral administration, blood samples (ca 0.2 mL) were collected and compound amount was measured by HLPC. For IV group, blood samples were collected at 0.083, 0.25, 0.5, 1, 2, 4, 6, 8, and 24 hours post-dose. For PO group, blood samples were collected at 0.25, 0.5, 1, 2, 4, 6, 8, and 24 hours post-dose.

HepG2 cells = assay: Lipid uptake assay (Nile Red), in vitro liver steatosis model; format: cell-based
Protocol: HepG2 cells: 5000 cells were plated in 96-well plate. The next day cells were treated with tested compounds for 4 hours and then treated with 1 mM oleic acid for additional 24 hours. Cells were then stained with Nile Red and lipid content was measured using Spectra Max i3X plate reader (Molecular Devices) and quantified with the SoftMax Pro 6 software.

PPARδ = PPARδ (Homo sapiens (Human), UniProt Q03181); assay: Transcriptional activation assay in COS7 cells, PPARδ; format: cell-based; conditions: PPRE luciferase reporter, PD151 and PD152 at 10 μM
Protocol: (§1) COS-7 were cultured in 6-well plates and co-transfected with either a luciferase reporter driven by 3 copies of a PPRE and expression vector for either PPARδ, PPARα or PPARγ together with a vector harboring cDNA for β-galactosidase, serving as a transfection control. To test whether FABP4 or FABP5 mediate activation of their cognate receptors PPARγ and PPARδ, respectively, cells were also co-transfected with a plasmid harboring sequence of either FABP4 or FABP5. 18 h post-transfection, cells were placed in a serum-free medium and treated with agonist/compound. 18 h. later, cells were lysed, luciferase activity was assayed (Promega, WI, USA) and corrected for transfection efficiency by the activity of β-galactosidase.
(§2) Transcriptional activation assays were carried out utilizing COS7 cells as described above.

FABP5 = FABP5 (Homo sapiens (Human), UniProt Q01469); assay: Fluorescence (ANS) competition binding assay, FABP5; conditions: ANS displacement
Protocol: (§3) This example illustrates a two-step fluorescence binding assay study used to determine the binding affinity of the various inhibitor compounds disclosed herein with the various FABPs: FABP3, FABP4, FABP5 and FABP7. Further secondary screening studies were carried out for compounds with high binding affinities toward the FABPs and based on their ability to activate the nuclear receptors PPARα, PPARγ, or PPARδ.
(§4) Binding assays for FABP3, FABP4, FABP5 and FABP7 were carried out by fluorescence titrations. His-tagged FABPs were bacterially expressed in E. coli, purified using Ni Sepharose beads, and the equilibrium dissociation constants (Kd) that characterize their interactions with different inhibitor compounds were measured by fluorescence competition assays. The method entails two steps as described in e.g., Lin, Q. et al., “Ligand selectivity of the peroxisome proliferator-activated receptor alpha,” Biochemistry 38, 185-190, doi:10.1021/bi9816094 [pii](1999). In the first step, Kd for the association of the protein with the fluorescent fatty acid probe ANS was measured. Protein (2 μM) was titrated with ANS from a concentrated solution in DMSO. Ligand binding was monitored by following the increase in the fluorescence of the ligand upon binding to the protein, and Kd for the association of ANS with the each FABP was computed from titration curves as described in e.g., Norris, A. W. & Li, E., “Fluorometric titration of the CRABPs,” Methods Mol Biol 89, 123-139 (1998)). In the second step, Kds for binding of non-fluorescent ligands were measured by monitoring their ability to displace ANS in the binding pocket of the protein. Each FABP was precomplexed with ANS at 1:1 molar ratio and titrated with the different compounds whose binding was reflected by a decrease in probe fluorescence. Kds were extracted from the EC50 of the competition curve and the measured Kd for ANS.

FABP4 = FABP4 (Homo sapiens (Human), UniProt P15090); assay: Fluorescence (ANS) competition binding assay, FABP4; conditions: ANS displacement
Protocol: as §3, §4

PPARγ = PPARγ (Homo sapiens (Human), UniProt P37231); assay: Transcriptional activation assay in COS7 cells, PPARγ; format: cell-based; conditions: PPRE luciferase reporter, PD151 and PD152 at 10 μM
Protocol: as §1, §2

[3] = brain, read-out: Brain concentration
[4] = liver, read-out: Liver concentration
[5] = pancreas, read-out: Pancreas concentration
[6] = plasma, read-out: Plasma concentration
[7] = skeletal muscle, read-out: Skeletal muscle concentration
[8] = white adipose tissue, read-out: Adipose tissue concentration
[9] = rat, plasma, intravenous 1 mg/kg

Chain of PPARγ (P37231 whole entry, species assumed): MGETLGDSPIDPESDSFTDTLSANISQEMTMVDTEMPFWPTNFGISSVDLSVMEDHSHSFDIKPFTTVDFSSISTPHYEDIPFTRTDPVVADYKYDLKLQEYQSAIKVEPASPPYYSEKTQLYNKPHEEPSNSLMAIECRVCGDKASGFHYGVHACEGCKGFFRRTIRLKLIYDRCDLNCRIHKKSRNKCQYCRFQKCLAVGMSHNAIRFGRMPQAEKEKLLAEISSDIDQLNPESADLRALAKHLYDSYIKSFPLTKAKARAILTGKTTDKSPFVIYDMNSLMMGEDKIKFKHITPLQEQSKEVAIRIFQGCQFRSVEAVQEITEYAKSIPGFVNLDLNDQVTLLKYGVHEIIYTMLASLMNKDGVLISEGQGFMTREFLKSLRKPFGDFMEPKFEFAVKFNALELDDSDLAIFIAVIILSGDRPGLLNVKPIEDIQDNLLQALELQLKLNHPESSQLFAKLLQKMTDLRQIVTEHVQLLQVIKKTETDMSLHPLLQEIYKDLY
Chain of PPARδ (Q03181 whole entry, species assumed): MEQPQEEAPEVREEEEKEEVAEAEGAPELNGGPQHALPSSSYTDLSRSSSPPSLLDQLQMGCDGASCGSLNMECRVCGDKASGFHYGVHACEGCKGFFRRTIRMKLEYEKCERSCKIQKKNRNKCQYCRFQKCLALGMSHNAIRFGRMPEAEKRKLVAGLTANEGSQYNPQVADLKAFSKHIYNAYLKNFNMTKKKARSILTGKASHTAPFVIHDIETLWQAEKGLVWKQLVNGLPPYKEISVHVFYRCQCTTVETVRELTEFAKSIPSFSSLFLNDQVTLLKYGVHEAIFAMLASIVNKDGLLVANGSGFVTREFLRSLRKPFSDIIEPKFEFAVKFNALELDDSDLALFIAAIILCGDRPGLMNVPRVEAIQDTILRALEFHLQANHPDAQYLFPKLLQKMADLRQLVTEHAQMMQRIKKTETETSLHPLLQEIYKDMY
Chain of FABP4 (P15090 whole entry, species assumed): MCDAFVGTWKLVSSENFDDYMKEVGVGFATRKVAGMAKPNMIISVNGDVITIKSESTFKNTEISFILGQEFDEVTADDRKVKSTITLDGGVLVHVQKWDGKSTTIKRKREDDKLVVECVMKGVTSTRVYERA
Chain of FABP5 (Q01469 whole entry, species assumed): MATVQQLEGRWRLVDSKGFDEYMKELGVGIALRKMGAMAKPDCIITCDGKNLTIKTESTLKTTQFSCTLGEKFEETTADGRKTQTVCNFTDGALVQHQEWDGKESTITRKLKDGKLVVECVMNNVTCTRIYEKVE

Q: With `CC(C)Oc1nc(NC(=O)CSCC(=O)O)c(Cl)cc1Cl` [PD152, 2-((2-((3,5-dichloro-6-isopropoxypyridin-2-yl)amino)-2-oxoethyl)thio)acetic acid] as the compound, how does the PK parameters ([1]; Adipose tissue) read?
A: 6655.32 ng·h/g

Q: What about the “Detection in the brain (blood-brain barrier crossing)” value ([1]; C57BL/6 male mice) of the same compound?
A: Only traces

Q: What about the “Mean peak adipose tissue concentration” value ([1]; C57BL/6 male mice) of the same compound?
A: 2109.6 ng/g

Q: And the “Mean peak liver concentration” value ([1]; C57BL/6 male mice)?
A: 3893.5 ng/g

Q: What about the “Mean peak pancreas concentration” value ([1]; C57BL/6 male mice) of the same compound?
A: 215.09 ng/g

Q: What about the “Mean peak plasma concentration” value ([1]; C57BL/6 male mice) of the same compound?
A: 3929.88 ng/mL

Q: What about the “Mean peak skeletal muscle concentration” value ([1]; C57BL/6 male mice) of the same compound?
A: 139.45 ng/g

Q: What about the PK parameters ([1]; Liver) of the same compound?
A: 6704.59 ng·h/g

Q: And the PK parameters ([1]; Pancreas)?
A: 352.54 ng·h/g

Q: What about the PK parameters ([1]; Skeletal Muscle) of the same compound?
A: 270.09 ng·h/g

Q: What about the concentration at 0.5 h [1, 3] of the same compound?
A: 14.8 ng/g

Q: And the concentration at 2 h [1, 3]?
A: 0 ng/g

Q: And the concentration at 4 h [1, 3]?
A: 0 ng/g

Q: What about the concentration at 8 h [1, 3] of the same compound?
A: 0 ng/g

Q: And the concentration at 0.5 h [1, 4]?
A: 3890 ng/g

Q: And the concentration at 2 h [1, 4]?
A: 419 ng/g

Q: And the concentration at 4 h [1, 4]?
A: 534 ng/g

Q: And the concentration at 8 h [1, 4]?
A: 238 ng/g

Q: What about the concentration at 0.5 h [1, 5] of the same compound?
A: 215 ng/g

Q: And the concentration at 2 h [1, 5]?
A: 28.2 ng/g

Q: And the concentration at 4 h [1, 5]?
A: 20 ng/g

Q: What about the concentration at 8 h [1, 5] of the same compound?
A: 14 ng/g

Q: And the concentration at 0.5 h [1, 6]?
A: 3930 ng/mL

Q: What about the concentration at 2 h [1, 6] of the same compound?
A: 236 ng/mL

Q: What about the concentration at 4 h [1, 6] of the same compound?
A: 210 ng/mL

Q: What about the concentration at 8 h [1, 6] of the same compound?
A: 149 ng/mL

Q: What about the concentration at 0.5 h [1, 7] of the same compound?
A: 139 ng/g

Q: And the concentration at 2 h [1, 7]?
A: 26.5 ng/g

Q: And the concentration at 4 h [1, 7]?
A: 14 ng/g

Q: What about the concentration at 8 h [1, 7] of the same compound?
A: 21.1 ng/g

Q: And the concentration at 0.5 h [1, 8]?
A: 2110 ng/g

Q: And the concentration at 2 h [1, 8]?
A: 1020 ng/g

Q: What about the concentration at 4 h [1, 8] of the same compound?
A: 520 ng/g

Q: And the concentration at 8 h [1, 8]?
A: 596 ng/g

Q: And the Kp ([1]; Adipose tissue)?
A: 1.3

Q: What about the Kp ([1]; Liver) of the same compound?
A: 1.3

Q: What about the Kp ([1]; Pancreas) of the same compound?
A: 0.07

Q: And the Kp ([1]; Skeletal Muscle)?
A: 0.05

Q: What about the Thalf ([2]; oral 10 mg/kg) of the same compound?
A: 1.13 h

Q: And the clearance [2, 9]?
A: 16 mL/min/kg

Q: What about the half-life [2, 9] of the same compound?
A: ~43.8 min

Q: What about the bioavailability ([2]; rat, plasma, oral 10 mg/kg) of the same compound?
A: 141%

Q: And the IC50 (HepG2 cells; Homo sapiens, compound 4 h then oleic acid 1 mM 24 h, Nile Red, read-out: IC50 for inhibition of lipid uptake)?
A: 553 nM

Q: What about the “Treatment concentrations at which lipid uptake was markedly inhibited” value (HepG2 cells; oleic acid 1 mM) of the same compound?
A: > 0.2 µM

Q: And the “Activation of transcription by PPARδ” value (PPARδ)?
A: None of these tested compounds activated; also recorded: none of the tested compounds PD151 and PD152 activated transcription

Q: What about the Kd (FABP5) of the same compound?
A: 28 nM

Q: And the Kd (FABP4)?
A: 18 nM

Q: And the “Activation of transcription by PPARγ” value (PPARγ)?
A: None of these tested compounds activated; also recorded: none of the tested compounds PD151 and PD152 activated transcription
